From patent US4766108A, “Tyr-Arg-vasopressin antagonists” (Smith Kline Beckman Corporation, priority 1986, dated 1988)
Numbered stars: 1 amine (or outer) side, 2 acyl side, 3 side chain; on linkers, the order of the positions; unused ones are H or OH. Bridge positions count the residues as written; N and C are the ends. Square brackets hold non-standard residues; d marks the D form. Peptide text beside a SMILES is read from it. X1 = O=C(CC1(S[*:2])CCCCC1)[*:1]

What was measured:
[1] = molecular target: T1, vasopressin receptors (V2 -receptors) in the porcine renal medullary membrane (Sus scrofa, UniProt P32307); test: [3H]-LVP binding, porcine renal medullary membrane (Kbind); conditions: affinity of ligand for receptor in porcine renal medullary membrane; from IC50 of [3H]-LVP binding, Kb = IC50/(1 + L/KD)
T1 construct: the porcine renal medullary membrane; It is derived from the equation for; from tissue; host or cells: porcine (hog) kidney medullary membranes
T1 sequence (P32307 whole entry): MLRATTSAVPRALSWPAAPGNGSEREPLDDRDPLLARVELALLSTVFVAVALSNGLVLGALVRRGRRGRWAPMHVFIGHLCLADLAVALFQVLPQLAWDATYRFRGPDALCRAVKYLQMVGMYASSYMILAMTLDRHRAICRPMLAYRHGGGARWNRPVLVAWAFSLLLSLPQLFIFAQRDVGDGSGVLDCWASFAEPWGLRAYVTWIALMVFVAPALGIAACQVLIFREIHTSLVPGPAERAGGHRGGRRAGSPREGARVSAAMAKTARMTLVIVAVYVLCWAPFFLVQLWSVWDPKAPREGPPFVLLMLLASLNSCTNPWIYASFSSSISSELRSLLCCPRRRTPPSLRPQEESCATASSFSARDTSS
Experimental: (§1) V2 -antagonistic activity toward the natural anti-diuretic hormone (anti-ADH activity) is determined, in vitro, in the medullary tissue of hog or human kidneys and, in vivo, in the hydropenic rat. The in vitro assay procedures for vasopressin stimulated adenylate cyclase activation or vasopressin binding activity are described by F. Stassen et al., J. Pharmacology and Experimental Therapeutics, 223, 50-54 (1982). V1 -antagonistic activity is determined by procedures using the rat thoracic aortic tissue and plasma membranes of rat liver. These procedures are described in the noted Stassen publication and in a publication at the lst International Conference on Diuretics, Miami, Fla., March (1984). Oxytocin antagonism is determined as described by W. Sawyer et al., Endocrinology, 106 81 (1979). | ^a Kbind is a measure of the affinity of ligand for receptor in | the porcine renal medullary membrane. It is derived from the equation for | competitive inhibition Kb = IC50 /(1 + L/KD) where | IC50 is the concentration of the ligand for 50% inhibition of [^ | H]-LVP binding, L is the concentration of the ligand, and KD is the | dissociation constant of [ ^3 H]-LVP.

[2] = molecular target: T2, V1 receptor, human liver membrane (Homo sapiens, UniProt P37288); test: Binding to human liver membrane (V1 receptor); conditions: read-out: Kbind human liver (V1 receptor)
T2 construct: from tissue; host or cells: human liver membranes
T2 sequence (P37288 whole entry): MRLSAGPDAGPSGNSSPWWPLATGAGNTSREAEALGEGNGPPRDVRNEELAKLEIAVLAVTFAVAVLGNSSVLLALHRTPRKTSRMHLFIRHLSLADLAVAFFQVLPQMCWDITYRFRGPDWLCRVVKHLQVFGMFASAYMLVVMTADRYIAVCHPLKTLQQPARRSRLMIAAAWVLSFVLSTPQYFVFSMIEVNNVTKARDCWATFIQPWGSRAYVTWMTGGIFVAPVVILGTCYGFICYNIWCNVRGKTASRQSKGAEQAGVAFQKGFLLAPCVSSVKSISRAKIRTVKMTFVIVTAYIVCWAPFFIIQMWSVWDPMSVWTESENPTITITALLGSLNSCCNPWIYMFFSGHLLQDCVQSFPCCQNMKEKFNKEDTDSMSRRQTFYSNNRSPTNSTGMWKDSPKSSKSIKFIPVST
Experimental: as §1, with “(1979).” for “(1979). | ^a Kbind is a measure of the affinity of ligand for receptor in | the porcine renal medullary membrane. It is derived from the equation for | competitive inhibition Kb = IC50 /(1 + L/KD) where | IC50 is the concentration of the ligand for 50% inhibition of [^ | H]-LVP binding, L is the concentration of the ligand, and KD is the | dissociation constant of [ ^3 H]-LVP.”
^d Kbind relates to human liver membrane activity.

SMILES	Ki [1] [nM]	Ki [2] [nM]
CCOc1ccc(C[C@H]2NC(=O)CC3(CCCCC3)SSC[C@@H](C(=O)N[C@@H](CCCNC(=N)N)C(=O)N[C@@H](CCCNC(=N)N)C(N)=O)NC(=O)[C@H](CC(N)=O)NC(=O)[C@H](C(C)C)NC(=O)[C@H](Cc3ccccc3)NC2=O)cc1 [compound 3] ([dY](Et)FVNCRR-NH2; linker N-5 via X1)	2.7	–
CCOc1ccc(C[C@H]2NC(=O)CC3(CCCCC3)SSC[C@@H](C(=O)N[C@@H](CCCNC(=N)N)C(=O)N[C@@H](Cc3ccc(O)cc3)C(N)=O)NC(=O)[C@H](CC(N)=O)NC(=O)[C@H](C(C)C)NC(=O)[C@H](Cc3ccccc3)NC2=O)cc1 [No. 2, [1-(β-mercapto-β,β-cyclopentamethylene-propionic acid)-2-(O-ethyl)-D-tyrosine-4-valine-7-arginine-8-tyrosine-9-desglycine]-vasopressin] ([dY](Et)FVNCRY-NH2; linker N-5 via X1)	23	1.8
CCOc1ccc(C[C@H]2NC(=O)CC3(CCCCC3)SSC[C@@H](C(=O)N[C@@H](Cc3ccc(O)cc3)C(=O)N[C@@H](CCCNC(=N)N)C(N)=O)NC(=O)[C@H](CC(N)=O)NC(=O)[C@H](C(C)C)NC(=O)[C@H](Cc3ccccc3)NC2=O)cc1 [No. 1, [1-(β-mercapto-β,β-cyclopentamethylene-propionic acid)-2-(O-ethyl)-D-tyrosine-4-valine-7-tyrosine-8-arginine-desglycine]-vasopressin] ([dY](Et)FVNCYR-NH2; linker N-5 via X1)	14	–
CCOc1ccc(C[C@H]2NC(=O)CC3(CCCCC3)SSC[C@@H](C(=O)N[C@@H](CCCNC(=N)N)C(N)=O)NC(=O)[C@H](CC(N)=O)NC(=O)[C@H](C(C)C)NC(=O)[C@H](Cc3ccccc3)NC2=O)cc1 [compound 5] ([dY](Et)FVNCR-NH2; linker N-5 via X1)	11	1.2
CCOc1ccc(C[C@H]2NC(=O)CC3(CCCCC3)SSC[C@@H](C(=O)N[C@@H](CCCCN)C(=O)N[C@@H](CCCNC(=N)N)C(N)=O)NC(=O)[C@H](CC(N)=O)NC(=O)[C@H](C(C)C)NC(=O)[C@H](Cc3ccccc3)NC2=O)cc1 [compound 4] ([dY](Et)FVNCKR-NH2; linker N-5 via X1)	8.8	–
